Results from PubChem BioAssay (NCI).
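Where inhibition never reached the appropriate level, the endpoint shown equals the highest concentration tested. Otherwise, values were interpolated linearly from a five-concentration, 48-hour dose response in 96-well plates. At the TGI there is no net growth.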

Columns and labels:
Assay in all cases: inhibition of tumour cell growth, NCI panel, 48 h
SK-MEL-28 melanoma = test system: SK-MEL-28 melanoma
HOP-92 NSCLC = test system: HOP-92 NSCLC
HCC-2998 colon = test system: HCC-2998 colon
SK-OV-3 ovarian = test system: SK-OV-3 ovarian
U251 CNS = test system: U251 CNS
K-562 leukemia = test system: K-562 leukemia
SN12C renal = test system: SN12C renal
RPMI-8226 leukemia = test system: RPMI-8226 leukemia
786-0 renal = test system: 786-0 renal
CAKI-1 renal = test system: CAKI-1 renal
MALME-3M melanoma = test system: MALME-3M melanoma
SF-268 CNS = test system: SF-268 CNS
UO-31 renal = test system: UO-31 renal
SK-MEL-5 melanoma = test system: SK-MEL-5 melanoma
KM12 colon = test system: KM12 colon
SK-MEL-2 melanoma = test system: SK-MEL-2 melanoma
OVCAR-4 ovarian = test system: OVCAR-4 ovarian
RXF 393 renal = test system: RXF 393 renal
IGROV1 ovarian = test system: IGROV1 ovarian
LOX IMVI melanoma = test system: LOX IMVI melanoma
MDA-N = test system: MDA-N
EKVX NSCLC = test system: EKVX NSCLC
OVCAR-3 ovarian = test system: OVCAR-3 ovarian
BT-549 breast = test system: BT-549 breast
MDA-MB-231 breast = test system: MDA-MB-231 breast
OVCAR-5 ovarian = test system: OVCAR-5 ovarian
NCI-H460 lung = test system: NCI-H460 lung
SR leukemia = test system: SR leukemia
PC-3 prostate = test system: PC-3 prostate
A549 NSCLC = test system: A549 NSCLC
NCI/ADR-RES ovarian = test system: NCI/ADR-RES ovarian
HOP-62 NSCLC = test system: HOP-62 NSCLC
NCI-H226 lung = test system: NCI-H226 lung
HCT-15 colon = test system: HCT-15 colon
NCI-H522 lung = test system: NCI-H522 lung
MDA-MB-435 = test system: MDA-MB-435
COLO 205 colon = test system: COLO 205 colon
NCI-H23 lung = test system: NCI-H23 lung
SW-620 colon = test system: SW-620 colon
SF-295 CNS = test system: SF-295 CNS
MCF7 breast = test system: MCF7 breast
TK-10 renal = test system: TK-10 renal
M14 melanoma = test system: M14 melanoma
MOLT-4 leukemia = test system: MOLT-4 leukemia
UACC-62 melanoma = test system: UACC-62 melanoma
DU-145 prostate = test system: DU-145 prostate
UACC-257 melanoma = test system: UACC-257 melanoma
HS 578T breast = test system: HS 578T breast
CCRF-CEM leukemia = test system: CCRF-CEM leukemia
OVCAR-8 ovarian = test system: OVCAR-8 ovarian
HCT-116 colon = test system: HCT-116 colon
ACHN renal = test system: ACHN renal
SNB-75 CNS = test system: SNB-75 CNS
HT29 colon = test system: HT29 colon
T-47D breast = test system: T-47D breast
A498 renal = test system: A498 renal
SF-539 CNS = test system: SF-539 CNS
HL-60(TB) leukemia = test system: HL-60(TB) leukemia
SNB-19 CNS = test system: SNB-19 CNS

## NC(N)=NS(=O)(=O)c1ccc(NC(=O)c2cccc3c(NNc4ccc(C(=O)O)cc4)c4ccccc4nc23)cc1
SK-MEL-28 melanoma
  TGI: > 100 µM
HOP-92 NSCLC
  TGI: > 100 µM
HCC-2998 colon
  TGI: > 100 µM
SK-OV-3 ovarian
  TGI: > 100 µM
U251 CNS
  TGI: > 100 µM
K-562 leukemia
  TGI: > 100 µM
SN12C renal
  TGI: > 100 µM
RPMI-8226 leukemia
  TGI: > 100 µM
786-0 renal
  TGI: > 100 µM
CAKI-1 renal
  TGI: > 100 µM
MALME-3M melanoma
  TGI: > 100 µM
SF-268 CNS
  TGI: > 100 µM
UO-31 renal
  TGI: > 100 µM
SK-MEL-5 melanoma
  TGI: > 100 µM
KM12 colon
  TGI: > 100 µM
SK-MEL-2 melanoma
  TGI: 95.7 µM
OVCAR-4 ovarian
  TGI: > 100 µM
RXF 393 renal
  TGI: > 100 µM
IGROV1 ovarian
  TGI: > 100 µM
LOX IMVI melanoma
  TGI: > 100 µM
MDA-N
  TGI: > 100 µM
EKVX NSCLC
  TGI: > 100 µM
OVCAR-3 ovarian
  TGI: > 100 µM
BT-549 breast
  TGI: > 100 µM
MDA-MB-231 breast
  TGI: > 100 µM
OVCAR-5 ovarian
  TGI: > 100 µM
NCI-H460 lung
  TGI: > 100 µM
SR leukemia
  TGI: > 100 µM
PC-3 prostate
  TGI: > 100 µM
A549 NSCLC
  TGI: > 100 µM
NCI/ADR-RES ovarian
  TGI: > 100 µM
HOP-62 NSCLC
  TGI: > 100 µM
NCI-H226 lung
  TGI: > 100 µM
HCT-15 colon
  TGI: > 100 µM
NCI-H522 lung
  TGI: > 100 µM
MDA-MB-435
  TGI: > 100 µM
COLO 205 colon
  TGI: > 100 µM
NCI-H23 lung
  TGI: > 100 µM
SW-620 colon
  TGI: > 100 µM
SF-295 CNS
  TGI: > 100 µM
MCF7 breast
  TGI: > 100 µM
TK-10 renal
  TGI: > 100 µM
M14 melanoma
  TGI: > 100 µM
MOLT-4 leukemia
  TGI: > 100 µM
UACC-62 melanoma
  TGI: > 100 µM
DU-145 prostate
  TGI: > 100 µM
UACC-257 melanoma
  TGI: > 100 µM
HS 578T breast
  TGI: > 100 µM
CCRF-CEM leukemia
  TGI: 85.2 µM
OVCAR-8 ovarian
  TGI: > 100 µM
HCT-116 colon
  TGI: > 100 µM
ACHN renal
  TGI: > 100 µM
SNB-75 CNS
  TGI: > 100 µM
HT29 colon
  TGI: > 100 µM
T-47D breast
  TGI: > 100 µM
A498 renal
  TGI: 98.2 µM
SF-539 CNS
  TGI: > 100 µM
HL-60(TB) leukemia
  TGI: > 100 µM
SNB-19 CNS
  TGI: > 100 µM
